In patent publication US20240093213A1, “PROCESSES, SYSTEMS AND MEDIA FOR DELIVERING A SUBSTANCE TO A PLANT” (EPIGENETICA LIMITED, priority 2020, published 2024):

Experiments:
[1] = system: Cannabis (Cs) apical cuttings; assay: Plant growth regulators delivered with ONB in hydroponics, plant growth; assay type: in vivo, Cannabis sativa; conditions: ONB compared to tap water as delivery system; 14 days hydroponics
Method: Hydroponic experiments were set up in glasshouse conditions: day temp. 25° C., night temp. 18° C., 16/8 h day/night and 150 μmol m^−2 s^−1 light intensity. Cannabis (Cs) apical cuttings were treated with Gibberellic acid A3 (GA3; Duchefa, G0907) at 12 mg/L final concentration, similar to Mansouri et al. (2011) or with DL-carnitine hydrochloride (Merck S7021474 Cas-No 461-05-2, 8.41774.0025) at 1 mM/L final concentration, as in Signem Oney-Birol (2019).
All solutions were prepared first in buckets, pH adjusted to 6.0. The liquid feed (Canna coco A+B) was added at the concentration: 4 mL of coco A and 4 mL of coco B per 1 L water; electric conductivity EC=2.0 mS/cm. Next the solutions were run through a fine bubble generator (Anzaikantetsu Co, AZ-FB-20ASVV) with a 0.75 standard litres per minute (SLPM) O2 flow and 800 L/H water flow. Each 25 L bucket was run for 30 min through the nozzle. EC and pH were checked and adjusted to the right level daily. Plants were grown in hydroponics for 14 days. Plant growth was monitored and compared to controls. Plant growth was determined by measurement of major growth parameters including plant height, whole plant fresh weight and number of stems. […]

[2] = system: lettuce (Lactuca sativa); assay: Ultrasonic fogging of leaves with air nanobubble water, fresh weight; assay type: in vivo; conditions: var. Tango, 14 days, fog from air nanobubble water, source solution 1.65 mg/L
Method: Seedlings of various lettuce varieties (Lactuca sativa) were exposed to ultrasonic fog generated from water that contained air nanobubbles carrying MVOCs.
Albuterol Sulfate 98.5% (Spectrum Chemical, New Brunswick, NJ, USA) was diluted in tap water at 1.65 mg/L. Five litres was then placed in a container that was pressurized by an air compressor at 1.3 bar. Gas flow from the pressurized container was directed to a nanobubble generator installed in a recirculating flow of water totaling 60 L. After a minimum of 2 hr treatment, 4 L of nanobubble treated water was removed from the recirculating system and placed in a rectangular plastic reservoir with a total capacity of 6 L. A three head ultrasonic fog generator was then placed in the reservoir, and the reservoir was placed in an enclosed plant growth chamber. Seeds of lettuce (Lactuca sativa, var. Tango) were planted in 2.5 cm square cells filled with ProMix growing media. Upon shoot emergence, seedlings were placed in the growth chamber and fog treatments began. A ‘control’ group of plants was placed in a different section of the growth chamber that was not subjected to any treatment. Growing parameters within the chambers were maintained at levels suitable for the crop, including a photoperiod of 16 hr/day. […] After 14 days, all plants were harvested and fresh weight recorded.

Row | Compound | Plant height and biomass [1] | Average increase in weight compared to control plants [2]
1 | C=C1C[C@]23C[C@@]1(O)CC[C@H]2[C@@]12C=C[C@H](O)[C@@](C)(C(=O)O1)[C@H]2[C@@H]3C(=O)O [gibberellic acid, Gibberellic acid A3] | Increased plant height and biomass | 
2 | Albuterol Sulfate |  | over 30%
3 | C[N+](C)(C)CC(O)CC(=O)O.[Cl-] (racemic) [DL-carnitine, DL-carnitine hydrochloride] | Increased plant height and biomass | 
